How the values were obtained:
Type in all cases: cell-based, E. coli
[1] = system: CFT073 imp4213 lpp^Ara; test: Western blot of Lpp forms, arabinose-inducible Lpp; settings: Lpp induced with arabinose prior to treatment
Source text: Lpp expression was induced prior to treatment with G2824 or globomycin to minimize the level of preexisting triacylated Lpp.
Bacterial cell samples normalized for equivalent OD600 and resuspended in BugBuster lysis buffer (Fischer Scientific) with the addition of sample buffer (LI-COR), and proteins were separated by SDS-PAGE using 16% Tricine protein gels or NuPAGE 4% to 20% bis-Tris gels (Thermo Fisher Scientific), transferred to nitrocellulose membranes using the iBlot 2 dry blotting system (Invitrogen), and blocked using LI-COR blocking buffer for 30 min. Unless stated otherwise, loading buffer with reducing agents was added and samples were not boiled prior to SDS-PAGE. For the sucrose gradient centrifugation, samples were boiled prior to running the SDS-PAGE. Primary antibodies were used at a final concentration of 1 μg/ml with some exceptions: rabbit anti-Lpp polyclonal antibody (0.1 μg/ml), murine anti-Pal 6D7 antibody (0.5 μg/ml), rabbit anti-GroEL antibody (1:10,000 final dilution), and rabbit anti-OmpA antibody (1:50,000 final dilution). The secondary antibodies were all obtained from LI-COR and used as per manufacturer’s instructions. Images were collected using the Odyssey CLx imaging system (LI-COR) and analyzed by Image Studio Lite.

[2] = system: BW25113 cells, lspA gRNA; test: CRISPRi knockdown sensitization, lspA gRNA; settings: 2 μM G2824, 0.05 μM globomycin or 0.016 μM ciprofloxacin; OD600 relative to untreated, versus scr or folA gRNA
Source text: The two-plasmid bacterial CRISPRi system pdCas9-bacteria_GNE and PGNRNA-bacteria_GNE are based on the AddGene plasmids 44249 and 44251 ([73]), respectively. The plasmid was synthesized in smaller DNA fragments (500 bp to 3 kb) (IDT gBlocks) and assembled by Gibson assembly (NEB) according to the manufacturer’s protocols. Plasmids were confirmed by sequencing (ELIM Bio). gRNAs were designed to target the 5′ end of the gene on the nontemplate strand using Benchling CRISPR software ([74]). gRNAs were cloned into PGNRNA-bacteria using Gibson assembly (NEB) according to the manufacturer’s protocols and sequence confirmed (ELIM Bio).
Bacterial cultures were grown overnight on LB agar supplemented with carbenicillin (50 μg/ml) and chloramphenicol (12.5 μg/ml) to maintain both plasmids, pdCas9-bacteria and PGNRNA-bacteria with each gRNA as appropriate. Cells were scraped from the plate into fresh medium. The OD600 was measured, and the culture was subsequently diluted to an OD600 0.001 in the presence or absence of G2824, globomycin, or ciprofloxacin. Two hundred microliters was transferred to a 96-well plate (Corning) and monitored for growth by measuring the OD600 (EnVision multimode plate reader; PerkinElmer). All treatments were performed in triplicates. The specificity of CRISPRi downregulation was measured using reverse transcriptase quantitative PCR (RT-qPCR).

[3] = system: CFT073 imp4213; test: SDS fractionation (PAP and non-PAP) of Lpp and Pal; settings: 0.5× MIC, 60 min, PAP fraction
Description: Purification of PGN-associated proteins (PAP) was performed according to published methods ([17], [40], [41]) with some modifications. Briefly, bacteria were harvested in mid-exponential phase for treatment and then subjected to PAP extraction by resuspending the cell pellets from an OD (A600) of 10 in 6 ml of PAP extraction buffer containing 2% (wt/vol) SDS in 100 mM Tris-HCl (pH 8.0) with 100 mM NaCl, 10% glycerol, and cOmplete, mini, EDTA-free protease inhibitor cocktail (Sigma-Aldrich). After 60 min at RT, the extraction was subjected to centrifugation at 100,000 × g for 60 min at 22°C, and the pellet, containing PGN and associated proteins, was washed once with the same PAP extraction buffer with centrifugation at 100,000 × g for 30 min and resuspended in 200 μl of PAP extraction buffer (referred to as the SDS-insoluble on PAP fraction). The supernatant containing the SDS-soluble fraction was aliquoted and frozen (referred to as non-PAP fraction). Both fractions were treated with equal volumes of BugBuster buffer prior to the addition of sample buffer for Western immunoblotting as described above. It should be noted that the final PAP fractions were ∼30-fold more concentrated than the non-PAP fractions.

[4] = system: MG1655 imp4213; test: Sucrose gradient centrifugation, IM and OM separation; settings: 1× MIC, 60 min
Description: Bacterial inner and outer membranes were separated by isopycnic sucrose gradient centrifugation as described previously ([75]) and by the Hancock Laboratory (http://cmdr.ubc.ca/bobh/method/outer-membrane-preparation-one-step-sucrose-gradient-procedure/), with some modifications. Briefly, bacteria were grown in Luria broth at 37°C to mid-exponential phase (OD600 of 0.8 to 0.9) and then treated with 1× MIC of designated inhibitors for 1 h. Cells representing equivalents of an OD600 of 10 were harvested by centrifugation at 4,000 × g for 15 min, washed once, and resuspended in cold 10 mM Tris, pH 8.0, containing 20% (wt/vol) sucrose, cOmplete EDTA-free protease inhibitor cocktail (Roche), and 1,000 U/ml nuclease (Benzonase nuclease; EMD Millipore). The cell suspension was disrupted by two passages through an LV1 Microfluidizer (Microfluidics). Unbroken cells were removed by centrifugation at 4,000 × g, and membranes were collected by ultracentrifugation at 100,000 × g for 1 h and washed once with cold 10 mM Tris, pH 8.0. The final membrane preparation was resuspended in 10 mM Tris, pH 8.0, containing 10% sucrose, cOmplete EDTA-free protease inhibitor cocktail (Roche), and 1,000 U/ml nuclease and then applied to the top of the sucrose gradients (73%, 60%, and 20%). The loaded gradients were spun at 39,000 rpm for 22 h at 4°C in a Beckman SW 41 Ti rotor. Fractions were collected from the top and analyzed by SDS-PAGE and immunoblotting with appropriate antibodies.

CCCCCC[C@H]1OC(=O)CNC(=O)[C@H]([C@H](C)O)NC(=O)[C@H](CO)NC(=O)[C@H]([C@H](C)CC)NC(=O)[C@H](CC(C)C)N(C)C(=O)[C@@H]1C [Globomycin]
level of mature Lpp [1]: decreased mature Lpp | sensitization by decreased lspA expression [2]: enhanced growth inhibition | levels of PGN-linked Lpp and Pal [3]: accumulation of PGN-linked DGPLP (§) and other PGN-linked Lpp forms (†) | IM accumulation of OM lipoproteins and OMPs [4]: IM accumulation of OM lipoproteins (Pal and BamB) and OMPs (BamA and OmpA) | IM accumulation of PGN-linked Lpp [4]: significant IM accumulation of PGN-linked Lpp, including DGPLP | localization of OmpA [4]: mislocalization of the β-barrel protein, OmpA | IM total protein and OM density ([4]; versus untreated): increases in total protein levels in the IM fraction and a decrease in OM density

Source: article PMC8316002, “Inhibition of Escherichia coli Lipoprotein Diacylglyceryl Transferase Is Insensitive to Resistance Caused by Deletion of Braun’s Lipoprotein” (Journal of Bacteriology, 2021)
